Measurements published in patent US11072616B2, “Cyclic peptides targeting alpha-4-beta-7 integrin” (Zealand Pharma A/S, priority 2015, dated 2021).
Read-outs that look alike come from different tables or passages of the source. Each block holds one compound with its values, some of them ahead of it.

Tests used:
[1] = Aqueous solubility assay; type: physicochemical; conditions: PBS pH 7.4, 4 h, room temperature; for Determined concentration Mean: mean of 3, maximal concentration evaluated 200, 500 or 1000 μM; for Determined concentration Rep 1: replicate 1; for Determined concentration Rep 2: replicate 2; for Determined concentration Rep 3: replicate 3
Experimental: Solutions were incubated for four hours at room temperature and stirred at 600 rpm and run in triplicate. Centrifugation was performed for 15 minutes at 6000 rpm and solution concentration was determined using HPLC-UV (photodiode array detector acquiring between 220 nm, and 300 nm wavelengths).

[2] = target: T1, integrin α4β7 (Homo sapiens, UniProt P13612+P26010); assay: Integrin α4β7—MAdCAM-1 competition assay (ELISA); type: binding
T1 sequence (P13612 34-977 limits assumed): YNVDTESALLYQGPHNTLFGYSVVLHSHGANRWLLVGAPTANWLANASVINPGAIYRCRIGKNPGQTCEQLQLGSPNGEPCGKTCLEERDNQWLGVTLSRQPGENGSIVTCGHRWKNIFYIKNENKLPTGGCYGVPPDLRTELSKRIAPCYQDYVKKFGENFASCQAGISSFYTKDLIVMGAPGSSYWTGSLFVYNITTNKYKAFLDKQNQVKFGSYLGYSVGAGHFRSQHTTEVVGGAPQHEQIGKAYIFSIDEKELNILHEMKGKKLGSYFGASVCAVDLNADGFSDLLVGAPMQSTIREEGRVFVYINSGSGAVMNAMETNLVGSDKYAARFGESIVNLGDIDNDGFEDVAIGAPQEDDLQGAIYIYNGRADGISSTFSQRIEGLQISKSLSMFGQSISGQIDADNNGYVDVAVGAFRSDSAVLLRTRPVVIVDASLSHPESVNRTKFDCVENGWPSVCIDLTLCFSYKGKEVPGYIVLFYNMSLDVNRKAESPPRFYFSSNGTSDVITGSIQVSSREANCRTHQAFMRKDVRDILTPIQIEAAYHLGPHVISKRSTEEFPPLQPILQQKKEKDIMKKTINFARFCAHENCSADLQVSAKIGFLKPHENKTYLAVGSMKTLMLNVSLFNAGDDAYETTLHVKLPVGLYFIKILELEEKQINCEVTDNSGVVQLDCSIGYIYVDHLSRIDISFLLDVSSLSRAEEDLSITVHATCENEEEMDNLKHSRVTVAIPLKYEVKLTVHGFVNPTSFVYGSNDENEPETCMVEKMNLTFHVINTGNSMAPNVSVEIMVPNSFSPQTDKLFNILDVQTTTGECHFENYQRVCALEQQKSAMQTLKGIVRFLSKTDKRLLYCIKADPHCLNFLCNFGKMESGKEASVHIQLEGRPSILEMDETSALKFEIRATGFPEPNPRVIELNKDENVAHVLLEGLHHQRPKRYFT
T1 sequence (P26010 20-723 limits assumed): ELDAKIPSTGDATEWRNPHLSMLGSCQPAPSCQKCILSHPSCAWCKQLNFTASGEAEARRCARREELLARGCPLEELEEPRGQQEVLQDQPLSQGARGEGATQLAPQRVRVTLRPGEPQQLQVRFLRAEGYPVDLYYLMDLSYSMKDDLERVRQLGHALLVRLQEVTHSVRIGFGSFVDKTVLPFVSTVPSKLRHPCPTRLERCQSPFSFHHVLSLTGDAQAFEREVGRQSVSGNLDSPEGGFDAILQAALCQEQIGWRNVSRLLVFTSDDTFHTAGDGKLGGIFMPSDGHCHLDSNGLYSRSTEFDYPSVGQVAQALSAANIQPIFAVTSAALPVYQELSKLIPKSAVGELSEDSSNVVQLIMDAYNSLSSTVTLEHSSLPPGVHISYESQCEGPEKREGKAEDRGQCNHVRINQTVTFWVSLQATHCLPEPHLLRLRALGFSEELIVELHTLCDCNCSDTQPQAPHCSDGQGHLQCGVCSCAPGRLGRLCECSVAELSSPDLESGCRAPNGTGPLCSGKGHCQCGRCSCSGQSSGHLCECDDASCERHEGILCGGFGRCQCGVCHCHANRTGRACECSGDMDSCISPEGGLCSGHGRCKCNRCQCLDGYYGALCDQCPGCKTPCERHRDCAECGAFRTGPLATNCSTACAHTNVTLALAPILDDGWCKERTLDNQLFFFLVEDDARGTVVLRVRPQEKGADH
Method in brief: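 Competitive ELISA in which serially diluted compound was incubated with the receptor system for 2 h at room temperature to equilibrium. Wash buffer contained 1 mM MnCl2. Bound Fc-tagged partner was detected with anti-human IgG Fc-HRP and TMB.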

[3] = ratio a4b1 ELISA IC50 / a4b7 ELISA IC50

Structure (SMILES): C=CCOc1ccc(C[C@@H]2NC(=O)[C@@H]3CCCN3[C@H](C(=O)NC(C)(C)C)[C@H](C)NC(=O)[C@H]([C@@H](C)O)NC(=O)[C@H](CC(=O)O)NC(=O)[C@H](CC(C)C)NC2=O)cc1 [UM0132371-01]
Determined concentration Mean [1]: 834.5 µM
Determined concentration Rep 1 [1]: 786.7 µM
Determined concentration Rep 2 [1]: 837.3 µM
Determined concentration Rep 3 [1]: 879.6 µM

Determined concentration Mean [1]: 1000.0 µM
Determined concentration Rep 1 [1]: 1012.0 µM
Determined concentration Rep 2 [1]: 1016.4 µM
Determined concentration Rep 3 [1]: 971.7 µM
Structure (SMILES): CC(C)C[C@@H]1NC(=O)[C@H](Cc2ccc(O)cc2)NC(=O)[C@H](C)NC(=O)[C@@H]2CCCN2[C@H](C(=O)NC(C)(C)C)[C@H](C)NC(=O)[C@H]([C@@H](C)O)NC(=O)[C@H](CC(=O)O)NC1=O [UM0134830-01]

Structure (SMILES): CC(C)C[C@@H]1NC(=O)[C@H](Cc2cscn2)NC(=O)[C@@H]2CCCN2[C@H](C(=O)NC(C)(C)C)[C@H](C)NC(=O)[C@H]([C@@H](C)O)NC(=O)[C@H](CC(=O)O)NC1=O [UM0132370-01]
Determined concentration Mean [1]: 183.2 µM
Determined concentration Rep 1 [1]: 187.0 µM
Determined concentration Rep 2 [1]: 182.4 µM
Determined concentration Rep 3 [1]: 180.2 µM

Structure (SMILES): CC(C)C[C@@H]1NC(=O)[C@@H]2CCCN2C(=O)[C@@H]2CCCN2[C@H](C(=O)NC(C)(C)C)[C@H](C)NC(=O)[C@H]([C@@H](C)O)NC(=O)[C@H](CC(=O)O)NC1=O [UM0132366-01]
Determined concentration Mean [1]: 467.8 µM
Determined concentration Rep 1 [1]: 474.2 µM
Determined concentration Rep 2 [1]: 477.4 µM
Determined concentration Rep 3 [1]: 451.9 µM

Structure (SMILES): CC(C)C[C@@H]1NC(=O)[C@H](CCCCN)NC(=O)[C@@H]2CCCN2[C@H](C(=O)NC(C)(C)C)[C@H](C)NC(=O)[C@H]([C@@H](C)O)NC(=O)[C@H](CC(=O)O)NC1=O [UM0132376-01]
Determined concentration Mean [1]: 962.9 µM
Determined concentration Rep 1 [1]: 990.7 µM
Determined concentration Rep 2 [1]: 958.6 µM
Determined concentration Rep 3 [1]: 939.5 µM

Determined concentration Mean [1]: 994.5 µM
Determined concentration Rep 1 [1]: 1044.8 µM
Determined concentration Rep 2 [1]: 933.2 µM
Determined concentration Rep 3 [1]: 950.6 µM
Structure (SMILES): CC(C)C[C@@H]1NC(=O)[C@@H](Cc2ccncc2)NC(=O)[C@@H]2CCCN2[C@H](C(=O)NC(C)(C)C)[C@H](C)NC(=O)[C@H]([C@@H](C)O)NC(=O)[C@H](CC(=O)O)NC1=O [UM0134700-01]

Structure (SMILES): CC(C)C[C@@H]1NC(=O)c2ccc(-c3ccc(N4CCN(C(=O)COCC(=O)N5CCN(c6ccc(-c7ccc8cc7CNC(=O)[C@@H]7CCCN7[C@H](C(=O)NC(C)(C)C)[C@H](C)NC(=O)[C@H]([C@@H](C)O)NC(=O)[C@H](CC(=O)O)NC(=O)[C@H](CC(C)C)NC8=O)cc6)CC5)CC4)cc3)c(c2)CNC(=O)[C@@H]2CCCN2[C@H](C(=O)NC(C)(C)C)[C@H](C)NC(=O)[C@H]([C@@H](C)O)NC(=O)[C@H](CC(=O)O)NC1=O [Compound 390]
Selectivity ELISA [2]: 1.749

Structure (SMILES): CC(C)C[C@@H]1NC(=O)CN(C)C(=O)[C@H](Cc2csc(-c3ccccn3)n2)NC(=O)[C@@H]2CCCN2[C@H](C(=O)NC(C)(C)C)[C@H](C)NC(=O)[C@H]([C@@H](C)O)NC(=O)[C@H](CC(=O)O)NC1=O [Compound 179]
Selectivity ELISA [2, 3]: 15.2

Structure (SMILES): CC(C)C[C@@H]1NC(=O)C2(CCCC2)NC(=O)[C@H](Cc2ccc(O)cc2)NC(=O)[C@@H]2CCCN2[C@H](C(=O)NC(C)(C)C)[C@H](C)NC(=O)[C@H]([C@@H](C)O)NC(=O)[C@H](CC(=O)O)NC1=O [Compound 104]
Selectivity ELISA [2, 3]: 4.2

Structure (SMILES): CC(C)C[C@@H]1NC(=O)[C@H]2C[C@@H](O)CN2C(=O)[C@H](Cc2ccc(O)cc2)NC(=O)[C@@H]2CCCN2[C@H](C(=O)NC(C)(C)C)[C@H](C)NC(=O)[C@H]([C@@H](C)O)NC(=O)[C@H](CC(=O)O)NC1=O [Compound 141]
Selectivity ELISA [2, 3]: 2.0

Structure (SMILES): CC(C)C[C@@H]1NC(=O)[C@@H](CCCCN)NC(=O)[C@H](Cc2ccc(O)cc2)NC(=O)[C@@H]2CCCN2[C@H](C(=O)NC(C)(C)C)[C@H](C)NC(=O)[C@H]([C@@H](C)O)N(C)C(=O)[C@H](CC(=O)O)NC1=O [Compound 121]
Selectivity ELISA [2, 3]: 11.4

Structure (SMILES): CO[C@H](C)[C@@H]1NC(=O)[C@H](CC(=O)O)NC(=O)[C@H](CC(C)C)NC(=O)[C@H](Cc2ccccc2)NC(=O)[C@@H]2CCCN2[C@H](C(=O)NC(C)(C)C)[C@H](C)NC1=O [Compound 40]
Selectivity ELISA [2, 3]: 1.9

Structure (SMILES): CC(C)C[C@@H]1NC(=O)c2ccc(-c3ccccc3N3CCNCC3)c(c2)CNC(=O)[C@@H]2CCCN2[C@H](C(=O)NC(C)(C)C)[C@H](C)NC(=O)[C@H]([C@@H](C)O)NC(=O)[C@H](CC(=O)O)NC1=O [Compound 348]
Selectivity ELISA [2, 3]: 1.5

Structure (SMILES): CC(C)C[C@@H]1NC(=O)[C@H]2CCCCN2C(=O)[C@@H]2CCCN2[C@H](C(=O)NC(C)(C)C)[C@H](C)NC(=O)[C@H]([C@@H](C)O)NC(=O)[C@H](CC(=O)O)NC1=O [Compound 51]
Selectivity ELISA [2, 3]: 3.3

Structure (SMILES): CC(C)C[C@@H]1NC(=O)[C@H](Cc2ccc(-c3ccccc3)cc2)NC(=O)[C@@H]2C[C@@H](F)CN2[C@H](C(=O)NC(C)(C)C)[C@H](C)NC(=O)[C@H]([C@@H](C)O)NC(=O)[C@H](CC(=O)O)NC1=O [Compound 46]
Selectivity ELISA [2, 3]: 2.4

Structure (SMILES): CCC[C@@H]1NC(=O)[C@@H]2CCCN2[C@H](C(=O)NC(C)(C)C)[C@H](C)NC(=O)[C@H]([C@@H](C)O)NC(=O)[C@H](CC(=O)O)NC(=O)[C@H](CC(C)C)NC1=O [Compound 71]
Selectivity ELISA [2, 3]: 4.4

Structure (SMILES): CC(C)C[C@@H]1NC(=O)C[C@H](CCCCN)NC(=O)[C@H](Cc2ccc(CN)cc2)NC(=O)[C@@H]2CCCN2[C@H](C(=O)NC(C)(C)C)[C@H](C)NC(=O)[C@H](C(C)C)NC(=O)[C@H](CC(=O)O)NC1=O [Compound 254]
Selectivity ELISA [2, 3]: 33.0

Structure (SMILES): CC(C)C[C@@H]1NC(=O)[C@H]2CCCCN2C(=O)[C@H](Cc2cscn2)NC(=O)[C@@H]2CCCN2[C@H](C(=O)NC(C)(C)C)[C@H](C)NC(=O)[C@H]([C@@H](C)O)NC(=O)[C@H](CC(=O)O)NC1=O [Compound 131]
Selectivity ELISA [2, 3]: 3.1

Structure (SMILES): CC[C@H](C)[C@@H]1NC(=O)[C@H](CC(=O)O)NC(=O)[C@H](CC(C)C)NC(=O)C[C@@H](CCCCN)NC(=O)[C@H](Cc2ccccc2)NC(=O)[C@@H]2CCCN2[C@H](C(=O)NC(C)(C)C)[C@H](C)NC1=O [Compound 220]
Selectivity ELISA [2, 3]: 18.2

Structure (SMILES): CC(C)C[C@@H]1NC(=O)C[C@H](CCCCN)NC(=O)C2(Cc3ccccc3C2)NC(=O)[C@@H]2CCCN2[C@H](C(=O)NC(C)(C)C)[C@H](C)NC(=O)[C@H]([C@@H](C)O)NC(=O)[C@H](CC(=O)O)NC1=O [Compound 288]
Selectivity ELISA [2, 3]: 12.2

Structure (SMILES): CC(C)C[C@@H]1NC(=O)[C@H](CC2CCCCC2)NC(=O)[C@@H]2CCCN2[C@H](C(=O)NC(C)(C)C)[C@H](C)NC(=O)[C@H]([C@@H](C)O)NC(=O)[C@H](CC(=O)O)NC1=O [Compound 7]
Selectivity ELISA [2, 3]: 1.6

Structure (SMILES): CC(C)C[C@@H]1NC(=O)CN(C)C(=O)[C@H](Cc2ccc(-c3ccccc3)cc2)NC(=O)[C@@H]2CCCN2[C@H](C(=O)NC(C)(C)C)[C@H](C)NC(=O)[C@H]([C@@H](C)O)NC(=O)[C@H](CC(=O)O)NC1=O [Compound 116]
Selectivity ELISA [2, 3]: 8.4
